In the supplement of paper PMC10307832:

Experiments:
Assay in all cases: relative viability (nuclei count vs DMSO), 5 days (fraction); higher = more cells survive
[1] = compound: CN1C=C(C2=CC=CC=C21)/C=C\3/C4=C(C=CC=N4)NC3=O + N=C(N)NC(=N)NCCc1ccccc1 [Phenformin] (partner 250 µM)
Method in brief: (§1)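 Each reported value is a median over duplicate plates. It expresses relative viability: treated-well nuclei count divided by vehicle-well nuclei count. Lung cancer cell lines in 1536-well plates were dosed by pin tool a day after seeding, alone with one drug or with a fixed anchor-drug dose plus five library-drug doses (not always all listed) in √10 steps, and nuclei were counted after 5 days.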

[2] = compound: CN1C=C(C2=CC=CC=C21)/C=C\3/C4=C(C=CC=N4)NC3=O + Cc1nc(Nc2ncc(C(=O)Nc3c(C)cccc3Cl)s2)cc(N2CCN(CCO)CC2)n1 [Dasatinib] (partner 0.075 µM)
Method in brief: as §1

[3] = compound: CN1C=C(C2=CC=CC=C21)/C=C\3/C4=C(C=CC=N4)NC3=O + C[C@]1(O)C[C@@H](c2nc(-c3ccc4ccc(-c5ccccc5)nc4c3)c3c(N)nccn32)C1 [Linsitinib] (partner 1 µM)
Method in brief: as §1

[4] = compound: CN1C=C(C2=CC=CC=C21)/C=C\3/C4=C(C=CC=N4)NC3=O + CC1(C)CCC(c2ccc(Cl)cc2)=C(CN2CCN(c3ccc(C(=O)NS(=O)(=O)c4ccc(N[C@H](CCN5CCOCC5)CSc5ccccc5)c(S(=O)(=O)C(F)(F)F)c4)cc3)CC2)C1 [Navitoclax] (partner 0.5 µM)
Method in brief: as §1

Cell Line	relative viability ([1]; first compound 0.02 µM)	relative viability ([1]; first compound 0.06325 µM)	relative viability ([1]; first compound 0.2 µM)	relative viability ([1]; first compound 0.6325 µM)	relative viability ([1]; first compound 2 µM)	relative viability ([2]; first compound 0.02 µM)	relative viability ([2]; first compound 0.06325 µM)	relative viability ([2]; first compound 0.2 µM)	relative viability ([2]; first compound 0.6325 µM)	relative viability ([2]; first compound 2 µM)	relative viability ([3]; first compound 0.02 µM)	relative viability ([3]; first compound 0.06325 µM)	relative viability ([3]; first compound 0.2 µM)	relative viability ([3]; first compound 0.6325 µM)	relative viability ([3]; first compound 2 µM)	relative viability ([4]; first compound 0.02 µM)	relative viability ([4]; first compound 0.06325 µM)	relative viability ([4]; first compound 0.2 µM)	relative viability ([4]; first compound 0.6325 µM)	relative viability ([4]; first compound 2 µM)
NCI-H661	0.261	0.277	0.266	0.276	0.264	0.892	0.827	0.626	0.819	0.853	0.689	0.536	0.578	0.486	0.559					
CAL-12T	0.507	0.537	0.613	0.612	0.601	0.501	0.302	0.347	0.285	0.273	0.821	0.787	0.809	1.05	0.809	1.22	1.11	1.22	1.19	1.14
HARA	0.407	0.412		0.34	0.431	0.313	0.265		0.254	0.244	0.93	0.92	1.03	0.932	1.06	1.09	1.15	1.04	1.17	1.17
NCI-H596	0.858	0.67	0.619	0.698	0.709	0.481	0.582	0.469	0.628	0.48	0.976	1.08	0.934	0.935	1.05	0.957	0.925	0.901	0.779	0.902
LU99A	0.874	0.846	0.695	0.602	0.8	0.67	0.457	0.437	0.669	0.612	0.534	0.506	0.509	0.485	0.617	0.86	0.849	0.857	0.865	0.79
LC-2-ad	0.595	0.546	0.414	0.537	0.549	0.572	0.482	0.45	0.597	0.515	0.743	0.83	0.766	0.864	0.765	0.412	0.304	0.439	0.412	0.389
NCI-H1650	0.401	0.451	0.362	0.345	0.397	0.262	0.296	0.26	0.263	0.277						0.901	0.984	0.927	0.918	1.19
NCI-H1915	0.331	0.361	0.365	0.347	0.36	0.331	0.295	0.274	0.338	0.31	1.07	1.1	1.08	1.12	1.06	0.823	0.8	0.805	0.772	0.801
ABC-1	0.226	0.242	0.23	0.244	0.21	0.484	0.424	0.53	0.562	0.56	0.797	0.704	0.604	0.729	0.712					
HCC-44	0.187	0.122	0.115	0.135	0.136						0.577	0.637	0.651	0.593	0.604	0.943	1.03	0.89	0.726	0.772
HCC-78	0.545	0.709		0.525	0.614	0.317	0.578		0.34	0.37	0.444	0.51	0.233	0.423	0.487	0.692	0.71	0.589	0.778	0.758
LXF-289	0.478	0.515	0.467	0.551	0.522	0.203	0.197	0.184	0.2	0.202	0.901	0.935	1.04	1	0.999	0.962	0.908	0.97	1.01	1.01
201T	0.434	0.451	0.429	0.394	0.422	0.587	0.533	0.504	0.531	0.413	0.993	1.05	0.967	1.09	0.786	1.22	1.21	1.24	1.27	1.23
NCI-H1734	0.412	0.354		0.376	0.373	0.453	0.408		0.455	0.517	0.803	0.853		1.09	0.889	0.817	0.82		0.798	0.83
NCI-H1623	0.631	0.537	0.546	0.513	0.564	0.469	0.625	0.49	0.457	0.505										
NCI-H2126	0.506	0.508	0.507	0.519	0.505	0.548	0.534	0.547	0.545	0.432	0.739	0.751	0.727	0.745	0.65	0.789	0.824	0.833	0.859	0.8
LOU-NH91	0.727	0.624	0.623	0.66	0.645	0.58	0.501	0.464	0.516	0.466	0.858	0.889	0.851	0.928	0.927	0.555	0.603	0.596	0.602	0.678
NCI-H1792	0.442	0.245		0.297	0.237	0.816	0.93	0.74		0.66	0.37	0.495	0.391		0.486	0.343	0.642	0.529		0.496
